Data on 10 molecules can be found in BindingDB's records for doi:10.1016/j.bioorg.2014.12.001 (Hazara University, 2015).

Alpha-glucosidase MAL12, sequence (P53341 whole entry): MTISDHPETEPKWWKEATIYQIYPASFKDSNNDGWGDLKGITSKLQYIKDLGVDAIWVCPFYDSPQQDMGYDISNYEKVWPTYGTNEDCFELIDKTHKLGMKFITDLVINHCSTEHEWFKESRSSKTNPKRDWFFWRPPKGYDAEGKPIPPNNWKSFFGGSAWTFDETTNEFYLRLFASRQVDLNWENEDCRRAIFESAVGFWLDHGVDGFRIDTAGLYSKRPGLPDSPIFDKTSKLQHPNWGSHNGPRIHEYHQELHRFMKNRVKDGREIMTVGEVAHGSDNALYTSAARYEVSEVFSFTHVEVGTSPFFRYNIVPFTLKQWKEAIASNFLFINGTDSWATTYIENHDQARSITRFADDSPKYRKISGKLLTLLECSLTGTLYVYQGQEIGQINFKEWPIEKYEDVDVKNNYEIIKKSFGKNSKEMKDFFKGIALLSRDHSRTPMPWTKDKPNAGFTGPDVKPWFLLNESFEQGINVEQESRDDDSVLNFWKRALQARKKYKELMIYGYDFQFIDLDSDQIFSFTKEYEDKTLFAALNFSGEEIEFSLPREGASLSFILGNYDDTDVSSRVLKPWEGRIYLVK

The assay concerns the target Alpha-glucosidase MAL12 (Saccharomyces cerevisiae (strain ATCC 204508 / S288c), UniProt P53341). Briefly: Alpha-glucosidase Assay. How it is done:
Typically, α-glucosidase activity was assayed in 50 mM phosphate buffer (pH 6.8) containing 5% v/v DMSO and PNP glycoside was used as a substrate. The inhibitors were pre-incubated with enzyme at 37 °C for 0.5 h. The substrate was then added and the enzymatic reaction was carried out at 37 °C for 60 min. The reaction was monitored spectrophotometrically by measuring the absorbance at 400 nm.
In the case of `O=C(CSc1nnc2c(n1)[nH]c1ccccc12)c1cccc(Br)c1` [2-(5H-[1,2,4]triazino[5,6-b]indol-3-ylthio)-1-(3-bromophenyl)-ethanone (11)], the IC50 (usually the concentration that inhibits the measured activity by half) amounted to 37.1 µM.

As for `COc1ccc(C(=O)CSc2nnc3c(n2)[nH]c2ccccc23)cc1` [2-(5H-[1,2,4]triazino[5,6-b]indol-3-ylthio)-1-(4-methoxyphenyl)-ethanone (4)], the IC50 worked out at 28.9 µM.

With `O=C(CSc1nnc2c(n1)[nH]c1ccccc12)c1cccc(O)c1` [2-(5H-[1,2,4]triazino[5,6-b]indol-3-ylthio)-1-(3-hydroxyphenyl)-ethanone (1)], the IC50 is 2.46 µM.

Consider `COc1cccc(C(=O)CSc2nnc3c(n2)[nH]c2ccccc23)c1` [2-(5H-[1,2,4]triazino[5,6-b]indol-3-ylthio)-1-(3-methoxyphenyl)-ethanone (10)], for which the IC50 came to 313 µM.

Take `O=C(CSc1nnc2c(n1)[nH]c1ccccc12)c1cccc(F)c1` [2-(5H-[1,2,4]triazino[5,6-b]indol-3-ylthio)-1-(3-flourophenyl)-ethanone (5)]: the IC50 stood at 38.1 µM.

`O=C(CSc1nnc2c(n1)[nH]c1ccccc12)c1ccc(Br)cc1` [2-(5H-[1,2,4]triazino[5,6-b]indol-3-ylthio)-1-(4-bromophenyl)-ethanone (3)] registered a concentration for half-maximal inhibition (IC50) of 37.8 µM.

In the case of `O=C(CSc1nnc2c(n1)[nH]c1ccccc12)c1ccc(-c2ccccc2)cc1` [2-(5H-[1,2,4]triazino[5,6-b]indol-3-ylthio)-1-(biphenyl-4-yl)-ethanone (2)], the IC50 stood at 78.4 µM.

`CC(Sc1nnc2c(n1)[nH]c1ccccc12)C(=O)c1ccccc1` (stereo not given) [2-(5H-[1,2,4]triazino[5,6-b]indol-3-ylthio)-1-phenylpropane-1-one (8)] gave an IC50 of 36.9 µM.

For `COc1ccccc1C(=O)CSc1nnc2c(n1)[nH]c1ccccc12` [2-(5H-[1,2,4]triazino[5,6-b]indol-3-ylthio)-1-(2-methoxyphenyl)-ethanone (9)], the IC50 stood at 51.6 µM.

Molecule `O=C(CSc1nnc2c(n1)[nH]c1ccccc12)c1cc2ccccc2oc1=O` [3-(2-(5H-[1,2,4]triazino[5,6-b]indol-3-ylthio)acetyl)-2H-chromen-2-one (7)] showed a concentration for half-maximal inhibition (IC50) of 37.4 µM.
